Test results taken from patent publication US10155021B2, “Antimicrobial 4-oxoquinolizines” (Emergent Product Development Gaithersburg Inc., priority 2011, dated 2018).
Converted amounts (≈) assume the structure as drawn. Where two headings read alike, the source gives them in different places.

Columns and labels:
[1] = test system: K. pneumoniae BAA-2146 (NDM-1, FQ-R); experiment: MIC on K. pneumoniae (Example 5); type: cell-based; details: Klebsiella pneumoniae, BAA2146, read-out: MIC K. pneumoniae BAA-2146 (NDM-1, FQ-R)
Description: MIC Values for all compounds were measured against a selection of bacterial strains. The MICs of 4-oxoquinolizines against a selection of Gram-negative and Gram-positive bacterial strains are shown in Table 13 in comparison with known antibiotics.

[2] = test system: A. baumannii J2; experiment: MIC without and with sub-inhibitory polymyxin B (Example 4); type: cell-based, Acinetobacter baumannii
[3] = test system: resistant strains of A. baumannii and one strain of Acinetobacter sp.; experiment: MIC without and with sub-inhibitory polymyxin B, whole panel / MIC ranges (Example 4; also strains not listed separately); type: cell-based; details: Acinetobacter baumannii
[4] = test system: Acinetobacter sp. (H064200250); experiment: Preliminary MBC without and with sub-inhibitory polymyxin B (Example 4); type: cell-based; details: Acinetobacter, without polymyxin B, preliminary MBC, read-out: MBC without PB
Description: The plates were incubated for 18-20 hours at 37° C. The MBC was read as the lowest concentration at which colony growth was ca. 90% less than the positive control (i.e. usually where single colonies or no colonies were observed).

[5] = test system: A. Baumanii OXA-51; experiment: MIC, panel of quinolone-resistant strains (CLSI); type: cell-based; details: Acinetobacter baumannii; CIP R, ESBL
[6] = test system: B. anthracis; experiment: microbe, parasite or virus in culture; type: cell-based; details: Bacillus anthracis, read-out: MIC B. anthracis
[7] = test system: E. coli 2906; experiment: MIC, panel of quinolone-resistant strains (CLSI); type: cell-based; details: Escherichia coli, CIP R
[8] = test system: A. baumannii ATCC 19606; experiment: Preliminary MBC without and with sub-inhibitory polymyxin B (Example 4); type: cell-based, Acinetobacter baumannii; details: Acinetobacter baumannii, ATCC19606, read-out: MBC without PB
[9] = test system: Klebsiella ssp KPC-3; experiment: MIC, panel of quinolone-resistant strains (CLSI); type: cell-based, Klebsiella spp; details: KPC3, CIP R, ESBL
[10] = test system: A. baumannii A473; experiment: MIC determination for Acinetobacter strains (Example 3); type: cell-based; details: LEV R, CIP R, MRP R, IMP R, AMK R, TET R
[11] = test system: Acinetobacter spp. H064200250; experiment: as above; type: cell-based, Acinetobacter sp.; details: LEV R, CIP R, MRP R, IMP I
[12] = test system: E. coli IMP; experiment: microbe, parasite or virus in culture; details: Escherichia coli, read-out: MIC E. coli IMP
[13] = test system: E. faecium 19434; experiment: MIC, standard panel of Gram-positive and Gram-negative bacteria (CLSI); type: cell-based, Enterococcus faecium; details: Enterococcus faecium, 19434; CAMHB; read-out: MIC E. faecium 19434
[14] = test system: A. baumannii J2; experiment: MIC determination for Acinetobacter strains (Example 3); type: cell-based; details: LEV R, CIP R
[15] = test system: A. baumannii A390; experiment: MIC without and with sub-inhibitory polymyxin B (Example 4); type: cell-based, Acinetobacter baumannii; details: Acinetobacter baumannii, A390, A. baumannii A390, without polymyxin B, read-out: MIC without PB
[16] = test system: P. aeruginosa 143-3-03; experiment: MIC, panel of quinolone-resistant strains (CLSI); type: cell-based; details: Pseudomonas aeruginosa, 143303; CIP I, POL R
[17] = test system: Pseudomonas ssp PER-1; experiment: MIC, panel of quinolone-resistant strains (CLSI); type: cell-based, Pseudomonas spp; details: PER1, CIP R, ESBL
[18] = test system: A. baumannii A401; experiment: MIC without and with sub-inhibitory polymyxin B (Example 4); type: cell-based, Acinetobacter baumannii; details: Acinetobacter baumannii, A401, A baumannii A 401; without polymyxin B; 2nd experiment; visual reading; read-out: MIC without PB
[19] = test system: A. baumannii A489; experiment: as above; type: cell-based, Acinetobacter baumannii; details: Acinetobacter baumannii, A489, A. baumannii A489; without polymyxin B; 2nd experiment; visual reading; read-out: MIC without PB
[20] = test system: A. baumannii A390; experiment: MIC determination for Acinetobacter strains (Example 3); type: cell-based; details: LEV R, CIP R, MRP R, IPM I, AMK R, TET I
[21] = test system: A. baumannii A329; experiment: MIC without and with sub-inhibitory polymyxin B (Example 4); type: cell-based, Acinetobacter baumannii; details: Acinetobacter baumannii, A329, A. baumannii A329; without polymyxin B; 2nd experiment; visual reading; read-out: MIC without PB
[22] = test system: F. tularensis; experiment: microbe, parasite or virus in culture; type: cell-based; details: Francisella tularensis, read-out: MIC F. tularensis
[23] = test system: S. aureus 101; experiment: MIC, standard panel of Gram-positive and Gram-negative bacteria (CLSI); type: cell-based, Staphylococcus aureus; details: Staphylococcus aureus, 101; CAMHB; read-out: MIC S. aureus 101
[24] = test system: A. baumannii A473; experiment: MIC without and with sub-inhibitory polymyxin B (Example 4); type: cell-based, Acinetobacter baumannii; details: Acinetobacter baumannii, A473, A. baumannii A473, without polymyxin B, read-out: MIC without PB
[25] = test system: A. baumannii A472; experiment: MIC determination for Acinetobacter strains (Example 3); type: cell-based; details: LEV R, CIP R, MRP I, IMP I, AMK R, TET R
[26] = test system: Acinetobacter sp. (H064200250); experiment: MIC without and with sub-inhibitory polymyxin B (Example 4); type: cell-based; details: Acinetobacter, without polymyxin B, read-out: MIC without PB
[27] = test system: B. thailandensis; experiment: microbe, parasite or virus in culture; type: cell-based, Burkholderia thailandensis; details: for MIC90: Burkholderia thailandensis, read-out: MIC90 B. thailandensis
[28] = test system: B. abortus; experiment: microbe, parasite or virus in culture; type: cell-based; details: Brucella abortus, read-out: MIC B. abortus
[29] = test system: E. coli CTX-M-15; experiment: MIC, panel of quinolone-resistant strains (CLSI); type: cell-based; details: Escherichia coli, CTXM15; CIP R, ESBL
[30] = test system: P. aeruginosa 1388-3-02; experiment: MIC, panel of quinolone-resistant strains (CLSI); type: cell-based; details: Pseudomonas aeruginosa, 1388302; CIP R, POL R
[31] = test system: E. coli 25922; experiment: MIC, standard panel of Gram-positive and Gram-negative bacteria (CLSI); type: cell-based, Escherichia coli; details: Escherichia coli, 25922; CAMHB; read-out: MIC E. coli 25922
[32] = test system: A. baumannii A472; experiment: MIC without and with sub-inhibitory polymyxin B (Example 4); type: cell-based, Acinetobacter baumannii; details: Acinetobacter baumannii, A472, A. baumannii A472; without polymyxin B; 1st experiment; read-out: MIC without PB
[33] = test system: S. pneumoniae 1027; experiment: MIC, panel of quinolone-resistant strains (CLSI); type: cell-based; details: Streptococcus pneumoniae, LEV R
[34] = test system: B. pseudomallei; experiment: microbe, parasite or virus in culture; type: cell-based; details: Burkholderia pseudomallei, read-out: MIC B. pseudomallei
[35] = test system: P. aeruginosa 27853; experiment: MIC, standard panel of Gram-positive and Gram-negative bacteria (CLSI); type: cell-based, Pseudomonas aeruginosa; details: Pseudomonas aeruginosa, 27853; CAMHB; read-out: MIC P. aeruginosa 27853
[36] = test system: A. baumannii J2; experiment: Preliminary MBC without and with sub-inhibitory polymyxin B (Example 4); type: cell-based, Acinetobacter baumannii; details: A. baumannii J2; +[…] polymyxin B; 2nd experiment; preliminary MBC
[37] = A. baumannii A14, without polymyxin B, 1st experiment, read-out: MIC without PB
[38] = read-out: MIC range without PB 01-10-2008 n = 8, without polymyxin B, 1st experiment, 8 strains
[39] = Acinetobacter spp. H064200250 (OXA51), 2nd experiment
[40] = Acinetobacter spp. H064200250, 1st experiment
[41] = Acinetobacter spp. H064200250 (OXA51), 2nd experiment, visual reading

Cc1c(-c2ccc(N)nc2)ccn2c(=O)c(C(=O)[O-])cc(C3CC3)c12.[K+] [Compound 33 K salt, potassium 8-(6-amino-pyridin-3-yl)-1-cyclopropyl-9-methyl-4-oxo-4H-quinolizine-3-carboxylate]
MIC [1]: > 8 µg/mL

Cc1c(-c2ccc(CN)cc2)ccn2c(=O)c(C(=O)O)cc(C3CC3)c12 [Compound 5, 8-(4-aminomethyl-phenyl)-1-cyclopropyl-9-methyl-4-oxo-quinolizine-3-carboxylic acid]
MIC ([2]; Acinetobacter baumannii, J2, A. baumannii J2, without polymyxin B, 1st experiment, read-out: MIC without PB): 8 µg/mL (≈ 23 µM) | MIC [3, 37]: 32 µg/mL (≈ 91.8 µM) | MIC ([3]; NCTC13301, A. baumannii NCTC 13301, without polymyxin B, 2nd experiment, visual reading, read-out: MIC without PB): 8 µg/mL (≈ 23 µM) | MIC [3, 38]: 2 to 32 µg/mL (≈ 5.74 to 91.8 µM) | MIC ([3]; without polymyxin B, 2nd experiment, 11 strains, read-out: MIC range without PB 14-10-2008 n = 11): 4 to 16 µg/mL (≈ 11.5 to 45.9 µM) | MBC [4, 39]: 16 µg/mL (≈ 45.9 µM) | MBC [4, 40]: 8 µg/mL (≈ 23 µM) | MIC [5]: 8 µg/mL (≈ 23 µM) | MIC [6]: 0.125 µg/mL (≈ 0.359 µM) | MIC [7]: 16 µg/mL (≈ 45.9 µM) | MBC [8]: 0.125 µg/mL (≈ 0.359 µM) | MIC [9]: 8 µg/mL (≈ 23 µM) | MIC [10]: 8 µg/mL (≈ 23 µM) | MIC [11]: 16 µg/mL (≈ 45.9 µM) | MIC [12]: < 0.008 µg/mL | MIC [13]: 2 µg/mL (≈ 5.74 µM) | MIC [14]: 8 µg/mL (≈ 23 µM) | MIC ([15]; 1st experiment): 8 µg/mL (≈ 23 µM) | MIC ([15]; 2nd experiment, visual reading): 8 µg/mL (≈ 23 µM) | MIC [16]: 4 µg/mL (≈ 11.5 µM) | MIC [17]: 8 µg/mL (≈ 23 µM) | MIC [18]: 8 µg/mL (≈ 23 µM) | MIC [19]: 8 µg/mL (≈ 23 µM) | MIC [20]: 8 µg/mL (≈ 23 µM) | MIC [21]: 8 µg/mL (≈ 23 µM) | MIC [22]: 0.125 µg/mL (≈ 0.359 µM) | MIC [23]: 4 µg/mL (≈ 11.5 µM) | MIC ([24]; 1st experiment): 8 µg/mL (≈ 23 µM) | MIC ([24]; 2nd experiment, visual reading): 8 µg/mL (≈ 23 µM) | MIC [25]: 8 µg/mL (≈ 23 µM) | MIC [26, 41]: 16 µg/mL (≈ 45.9 µM) | MIC [26, 40]: 16 µg/mL (≈ 45.9 µM) | MIC90 [27]: 0.39 µg/mL (≈ 1.12 µM) | MIC [28]: 1 µg/mL (≈ 2.87 µM) | MIC [29]: 16 µg/mL (≈ 45.9 µM) | MIC [30]: 16 µg/mL (≈ 45.9 µM) | MIC [31]: < 0.03 µg/mL | MIC [32]: 8 µg/mL (≈ 23 µM) | MIC [33]: 2 µg/mL (≈ 5.74 µM) | MIC [34]: 2 µg/mL (≈ 5.74 µM)

Cc1c(-c2ccc3[nH]ncc3c2)ccn2c(=O)c(C(=O)[O-])cc(C3CC3)c12.[K+] [Compound 35 K salt, potassium 8-(1H-indazol-5-yl)-1-cyclopropyl-9-methyl-4-oxo-4H-quinolizine-3-carboxylate]
MIC [1]: > 8 µg/mL

Cc1c(-c2ccc(CN)cc2)c(F)cn2c(=O)c(C(=O)O)cc(C3CC3)c12 [Compound 6, 8-(4-aminomethyl-phenyl)-1-cyclopropyl-7-fluoro-9-methyl-4-oxo-quinolizine-3-carboxylic acid]
MIC +[…] PB ([2]; A. baumannii J2, +[…] polymyxin B, 2nd experiment, visual reading): 0.25 µg/mL (≈ 0.682 µM) | MIC [3, 37]: 32 µg/mL (≈ 87.3 µM) | MIC ([3]; NCTC13301, A. baumannii NCTC 13301, without polymyxin B, 1st experiment, read-out: MIC without PB): 32 µg/mL (≈ 87.3 µM) | MIC [3, 38]: 4 to 32 µg/mL (≈ 10.9 to 87.3 µM) | MBC [4, 39]: > 32 µg/mL | MBC [4, 40]: 8 µg/mL (≈ 21.8 µM) | MIC [6]: 0.125 µg/mL (≈ 0.341 µM) | MIC [7]: 16 µg/mL (≈ 43.7 µM) | MIC [9]: 16 µg/mL (≈ 43.7 µM) | MIC [11]: 8 µg/mL (≈ 21.8 µM) | MIC [13]: 4 µg/mL (≈ 10.9 µM) | MIC [16]: 8 µg/mL (≈ 21.8 µM) | MIC [17]: 16 µg/mL (≈ 43.7 µM) | MIC [22]: 0.125 µg/mL (≈ 0.341 µM) | MIC [35]: 2 µg/mL (≈ 5.46 µM) | MIC [23]: 2 µg/mL (≈ 5.46 µM) | MIC [26, 41]: 16 µg/mL (≈ 43.7 µM) | MIC [26, 40]: 8 µg/mL (≈ 21.8 µM) | MIC90 [27]: 0.39 µg/mL (≈ 1.06 µM) | Dilutions improvement shift on B. thailandensis MIC90 (between pH 7 and pH 5) ([27]; pH 7 versus pH 5): No | MIC [28]: 0.5 µg/mL (≈ 1.36 µM) | MIC [29]: 16 µg/mL (≈ 43.7 µM) | MBC +[…] PB [36]: 0.25 µg/mL (≈ 0.682 µM) | MIC [30]: 32 µg/mL (≈ 87.3 µM) | MIC [31]: < 0.03 µg/mL | MIC [33]: 2 µg/mL (≈ 5.46 µM) | MIC [34]: 2 µg/mL (≈ 5.46 µM)

Cc1c(-c2cc(F)c(N)cc2F)ccn2c(=O)c(C(=O)[O-])cc(C3CC3)c12.[K+] [Compound 2 K salt, Potassium 8-(4-amino-2,5-difluoro-phenyl)-1-cyclopropyl-9-methyl-4-oxo-4H-quinolizine-3-carboxylate]
MIC [1]: > 8 µg/mL
